Source: a melting point compilation (Tetko et al.; mined from patent text by program, amines drawn as free bases though some values may be those of a salt)
Residues, ends and D or L forms follow the SMILES beside them. *: point of attachment. Cbz = O=C(OCc1ccccc1)*; Boc = CC(C)(C)OC(=O)*

| melting point [°C] | Compound |
| --- | --- |
| 88 to 90 | CCCCNC(=O)[C@@H]1CCCN1C(=O)OCc1ccccc1 |
| > 260 | COc1ccc(Cn2c(O)nc3c(N)nc4ccccc4c32)cc1 |
| 93 to 97 | C[C@H](c1ccccc1)n1c(=O)c2c(Cl)cc(Cl)cc2n(Cc2ccccc2)c1=O |
| 157 to 160 | Cc1cc(=O)oc2nc(N(C)C)ccc12 |
| > 250 | O=c1ccc(S(=O)(=O)c2cc3cc(Cl)ccc3[nH]2)n[nH]1 |
| 202 to 204 | COc1cc(OC)cc(-c2ncn(CCO)c2-c2ccc(OC)c(F)c2)c1 |
| 295 to 298 | CCCc1c(CC)sc2[nH]c(=O)c(=O)[nH]c12 |
| 158 to 160 | Cc1nc2cc(C#N)ccc2s1 |
| 242 to 243 | O=C(O)CCC1(NC(=O)c2ccc(Cl)c(Cl)c2)C(=O)N(CCCc2ccccc2)c2ccccc21 (configuration not stated) |
| > 250 | Cc1ccc(S(=O)(=O)Nc2nc(-c3ccc([N+](=O)[O-])cc3)cs2)cc1 |
| 218 to 219 | CC(=O)NCC1CN(c2cc(F)c(-c3cccnc3)c(F)c2)C(=O)O1 (configuration not stated) |
| 99.5 | Cc1cc(-c2noc(C)c2-c2ccc(S(C)(=O)=O)c(F)c2)ccc1-c1cscn1 |
| 59 to 61 | COC(=O)c1c(C(C)C)nc(C(C)C)c(CN2CCC(N3CCCCC3)CC2)c1-c1ccc(F)cc1 |
| 61 to 63 | COC(=O)c1ccc(OC)c(Oc2ccccc2)c1 |
| 189 | NNC(=O)c1ncn2ccccc12 |
| 104 | CCCCCCCNC(=O)N(C)c1ccc(C)c(-c2ccc(CCC(=O)O)cc2)c1 |
| 191 to 192 | O=C(NCCO)c1cccc(-c2ccc3cnn(-c4ccc(Cl)cc4Cl)c3c2)c1 |
| 178 to 182 | COc1cc2c(cc1OC)C(C)=[N+]([O-])C(c1ccccc1)N2 (configuration not stated) |
| 209 to 211 | O=Cc1c(O)cccc1OCc1cccc(C(=O)O)c1 |
| > 119 | CCCCc1nn(-c2cc(NC(=O)OCCC)ccc2Cl)c(=O)n1Cc1ccc(-c2ccccc2S(=O)(=O)NC(=O)c2ccccc2Cl)cc1 |
| 179 to 182 | COC1(OC)CN(c2nc3c(cc2F)C=C(C(=O)O)CN3c2ccc(F)cc2F)CC1C (configuration not stated) |
| 241 to 242 | Cc1noc(NC(=O)N2CCN(c3nccc(-c4cc(F)cc(F)c4)n3)CC2)c1C |
| 73 to 74 | CN(C)c1ccc(Cn2nnc(-c3ccc(OC(=O)C(C)(C)C)c(N(C)C)c3)n2)cc1 |
| 152 to 154 | Cc1cc(-n2nc(C(F)(F)F)cc2-c2ccc(S(C)(=O)=O)cc2)ccc1Cl |

| melting point [°C] | Compound |
| --- | --- |
| 233 to 235 | COC(=O)c1cccc(NC(=O)c2ccc(OC)c([N+](=O)[O-])c2)c1 |
| 80 | CC(C)(C)CC(C)(C)c1ccc(Nc2ccc(Cc3ccc(Nc4ccc(C(C)(C)CC(C)(C)C)cc4)c4ccccc34)c3ccccc23)cc1 |
| 174 to 176 | CC(=O)NC[C@H]1CN(c2ccc(N3CCC(n4nnc(N5CCN(C)CC5)n4)CC3)c(F)c2)C(=O)O1 |
| 188 to 189 | CCc1nc2cc(Cl)c(Cl)nc2n1-c1ccc(CCNC(=O)NS(=O)(=O)c2ccc(C)cc2)cc1 |
| 161 to 162 | C=CCc1c(O)c(C)cc2ccc(=O)oc12 |
| 218 to 219 | Fc1ccc(-c2[nH]nc(Nc3ccccc3)c2-c2ccncc2)cc1 |
| 199 to 205 | CNc1nc(-c2ccc(SC)cc2)n(-c2ccc(C)c(C)c2)c(=O)c1C#N |
| 78 to 81 | COc1ccc2nc(CBr)sc2c1 |
| 35 to 36 | CCOC(=O)CCCN=c1sc2ccccc2s1 |
| 185 to 187 | CCc1cccc(C)c1NC(=O)N=C1NCCN1 |
| 203 to 204 | CC(C)Cn1cnc2c(N)nc3ccc(-c4ccccc4)cc3c21 |
| 205 to 206 | COC(=O)NC1CCc2sc(C3=NNC(=O)CC3)cc2C1 (configuration not stated) |
| 124 | CC(C)(C)C(=O)C(Cc1ccc(Cl)cc1)n1cncn1 (configuration not stated) |
| 217 to 219 | Nc1nc(Cl)c2ncn([C@@H]3C[C@H](O)[C@@](O)(CO)C3)c2n1 |
| 131 to 132 | Oc1c(Cl)cc(Cl)cc1CNc1cnsn1 |
| 247 to 249 | C1=c2ccccc2=NCO1 |
| 158 to 160 | O=C(C(=C1NCCCS1)[N+](=O)[O-])c1ccc([N+](=O)[O-])cc1 |
| 135 to 137 | COc1ccc(C#N)cc1C(=O)NCCN1CCC(=C(O)c2ccc(F)cc2)CC1 |
| 69 to 70 | CCOC(=O)C=C(c1ccc(Br)s1)c1ccc(Br)s1 |
| 108 | CC(C)(C)OC(=O)N1CCN(c2cncc(Cl)n2)CC1 |
| 167 to 169 | C#CCOc1cc(-n2c(=S)n3n(c2=S)COCC3)c(F)cc1Cl |
| 106 to 108 | COc1cc(Nc2c(C#N)cnc3sc(-c4ccc(CN5CCOCC5)cc4)cc23)c(Cl)cc1Cl |
| 160 | CNC(=O)c1ccccc1Nc1nc(Nc2c(OC)ccc3c2CCOC(=O)N3C)ncc1Cl |
| 196 to 197 | O=C(CC(=O)c1cc(O)ccc1O)c1ccc(OCc2ccccc2)c(OCc2ccccc2)c1 |

| melting point [°C] | Compound |
| --- | --- |
| 128 to 129 | CC(C)Nc1nccc(C#Cc2ccc(F)cc2)n1 |
| 172 to 174 | O=C(CCCN1CCC(C(O)c2cccc3ccccc23)CC1)c1ccc(F)cc1 (configuration not stated) |
| 98 | COc1ccc(S(=O)(=O)C(C)(Cc2ccc(OCCN3CCCCC3)cc2)C(=O)NO)cc1 (configuration not stated) |
| 240 to 241 | CCCCn1cc([N+](=O)[O-])c(=O)c2cnc(-c3ccncc3)nc21 |
| 214 to 217 | CC(NC(=O)OCc1ccccc1)C(=O)NC(C(=O)NC(CCCCNC(=O)OC(C)(C)C)C(N)=O)C(C)C (stereo not drawn) (Cbz-Ala-Val-Lys(Boc)-NH2; configuration not given here) |
| 178 | COc1cc2c(cc1OC)CN(CCc1cccc(NC(=O)c3cccc4c(=O)c5cccc(F)c5[nH]c34)c1)CC2 |
| 268 to 270 | CC1(c2ccc([N+](=O)[O-])cc2)Cc2cc(O)c(Cl)c(Cl)c2C1=O (configuration not stated) |
| 186 to 188 | CNc1cc(N2CCC(c3ccccc3)CC2)nc(C)n1 |
| 131 to 134 | C=CC(=O)N1CCc2cc(OC)c(OC)cc2C12CCC(C(=O)OCC)(C(=O)OCC)CC2 |
| 220 to 221 | COc1cc(OC)c2c(=O)[nH]c(-c3cc(C)c(OCCN4C(=O)NC(c5ccccc5)C4=O)c(C)c3)nc2c1 (configuration not stated) |
| 229 to 230 | CC(=O)NC[C@H]1CN(c2ccc(C(=O)c3cnc4c([N+](=O)[O-])cccn34)cc2)C(=O)O1 |
| 98.5 to 99.5 | CC1CN(c2ncc(Br)cc2C=O)CC1C (configuration not stated) |
| 73 to 74 | ClCc1coc(C2=Cc3ccccc3CC2)n1 |
| 197 to 202 | Cc1c(C)c2c(c(C)c1OC(=O)CCC(=O)O)CCC(C)(COc1ccc(CC3SC(=O)NC3=O)cc1)O2 (configuration not stated) |
| 241 to 243 | O=C(O)c1cccc(C(=O)O)c1Nc1ccc(I)cc1 |
| 114 to 115 | CCOC(=O)Cn1cc(Cc2nc3c(F)c(F)cc(F)c3s2)c2ccc(CC)nc21 |
| 235 to 237 | O=C(C1CN(S(=O)(=O)c2ccc3cc(Br)ccc3c2)CCN1C(=O)C1CCN(c2ccncc2)CC1)N1CCOCC1 (configuration not stated) |
| 144 to 145 | O=c1[nH]c2cc(F)c(NCCCC3CCCOC3)cc2o1 (configuration not stated) |
| > 260 | O=C1CCn2c(nc3ccccc32)N1 |
| 245 to 246 | O=C(O)c1cn(-c2cccs2)c2cc(F)c(F)cc2c1=O |
| 86 to 90 | CNC(=O)N1CCC(C(Nc2ccc(F)cc2)c2ccc(F)cc2)CC1 (configuration not stated) |
| 205 to 206 | CCOC(=O)c1[nH]c2cc(Br)c(Cl)cc2c1-c1ccccc1 |
| 108 to 110 | CCOC(=O)c1cc(Br)c(OCCO)c(-c2cccc(Cl)c2)c1 |
| 238 to 240 | CCC(=O)NN=C(c1ccc(Cl)cc1)c1ccc(NS(=O)(=O)c2ccccc2)cc1 |

| melting point [°C] | Compound |
| --- | --- |
| 36 to 38 | CCCCCCCCCCCCC1=C(OCC)C(=O)c2ccccc2C1=O |
| 95 to 97.5 | Cn1c(CC#N)ccc1C(=O)c1ccc(C(F)(F)F)cc1 |
| 115 to 118 | COc1cc(CC(=O)CCNCCOc2ccc(C(=O)O)cc2OC)ccc1NC(=O)Nc1ccccc1C |
| 180 to 186 | CS(=O)(=O)N(Cc1cccnc1)c1ccc(Cl)cc1Cl |
| 123 to 130 | Nc1ncccc1OCc1c(F)cccc1Cl |
| > 300 | COc1ccc(-c2nc3cc(Cl)c(Cl)cc3[nH]2)cc1N |
| 145 to 147 | CNC(=S)C1=CC(CF)(CF)Oc2ccc(C(F)(F)F)cc21 |
| 42 to 44 | Cc1ccsc1C(=O)c1cccn1N |
| 157 to 158 | Oc1cc(O)cc(/C=C/c2ccccc2)c1 |
| 162 | NC(=O)[C@H]1CCCN1C(c1ccccc1)(c1ccccc1)c1ccccc1 |
| 81 to 82 | CCOC(=O)CCc1nnc(-c2ccc3c(c2)CCO3)o1 |
| 127 to 130 | O=C(O)c1cccc(C(=O)c2cc(Cl)cc(C(=O)c3ccccc3O)c2O)c1O |
| 145 to 149 | O=c1c2ccccc2ccc2ccc(S(=O)(=O)C(F)(F)F)cc12 |
| 165 to 167 | Cn1c(-c2ccc(-c3cncs3)cc2)cnc1[C@H](Cc1ccccn1)N(C=O)c1cc2cc(Cl)ccc2o1 |
| 100 to 101 | CCc1nc2c(N)nc3cc(OCc4ccc(S(=O)(=O)NCCc5cc6ccccc6[nH]5)cc4)ccc3c2s1 |
| 153 to 157 | CC(=O)C(=CS(=O)(=O)NC(C)C)c1cccc([N+](=O)[O-])c1 |
| 136 to 138 | CCCc1nn(-c2ccc(C(F)(F)F)cn2)cc1CCCOc1c(CC(=O)O)cnn1C |
| 118 to 119 | Oc1ccc(CCNC[C@H](O)COc2ccccc2)cc1 |
| 114 to 115 | CCCc1nn(-c2ccc(C(F)(F)F)cn2)cc1CCCCOc1nn(-c2ccccc2)cc1CC(=O)O |
| 278 to 280 | CC(=O)NC12Oc3cc(C(C)C)ccc3C1(O)C(=O)c1c(N)cccc12 (configuration not stated) |
| 125 to 126 | N#Cc1ccccc1-c1ccc(CCl)cc1 |

| Compound | melting point [°C] |
| --- | --- |
| N#CC1CN1C(=O)NC(=O)c1ccc(Cl)cc1 (configuration not stated) | 160 to 162 |
| CS(=O)(=O)C(=[N+]=[N-])S(C)(=O)=O | 120 to 124 |
| O=C(O)c1ccc2[nH]c(=O)n(CCCCN3CC=C(c4ccccc4)CC3)c(=O)c2c1 | 237 |
| O=C1CN(C(=O)Cl)C(c2ccccc2)c2cc(Cl)ccc2N1 (configuration not stated) | 181 to 184 |
